Laboratory results: ChEMBL document CHEMBL4354824, “4-Aryl-1-oxa-4,9-diazaspiro[5.5]undecane Derivatives as Dual μ-Opioid Receptor Agonists and σ1 Receptor Antagonists for the Treatment of Pain” (J Med Chem, 2020)

Assays:
[1] = biological target: Sigma non-opioid intracellular receptor 1 (Homo sapiens, UniProt Q99720); test: Displacement of [3H]-(+)-pentazocine from human sigma-1 receptor expressed in HEK293 membranes incubated for 120 mins by liquid scintillation counting method
[2] = biological target: T1, Mu-type opioid receptor (Homo sapiens, UniProt P35372); test: Agonist activity at human MOR expressed in CHOK1 cells assessed as […] of cAMP accumulation incubated for 45 mins by HTRF assay; assay type: functional, cell-based
T1 sequence (P35372 whole entry): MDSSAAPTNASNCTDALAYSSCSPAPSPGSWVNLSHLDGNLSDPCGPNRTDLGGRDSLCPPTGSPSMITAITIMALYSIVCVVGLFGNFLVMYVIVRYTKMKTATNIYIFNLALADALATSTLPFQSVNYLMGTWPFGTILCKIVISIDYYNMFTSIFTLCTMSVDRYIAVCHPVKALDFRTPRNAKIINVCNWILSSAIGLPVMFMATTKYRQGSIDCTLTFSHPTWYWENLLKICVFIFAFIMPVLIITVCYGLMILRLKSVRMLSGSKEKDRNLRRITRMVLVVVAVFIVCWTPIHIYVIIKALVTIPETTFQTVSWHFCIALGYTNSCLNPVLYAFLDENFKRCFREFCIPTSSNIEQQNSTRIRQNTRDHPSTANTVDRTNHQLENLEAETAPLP

[3] = biological target: T1, Mu-type opioid receptor; test: Agonist activity at human MOR expressed in CHOK1 cells assessed as […] of cAMP accumulation incubated for 45 mins by HTRF assay relative to DAMGO; assay type: functional, cell-based
[4] = biological target: T2, Alpha-1A adrenergic receptor (Homo sapiens) (UniProt P35348); test: Displacement of [3H]-prazosin from human alpha1A adrenoreceptor expressed in enriched membranes at 1 uM incubated for 90 mins by liquid scintillation counting method relative to control; assay type: cell membranes
T2 sequence (whole entry): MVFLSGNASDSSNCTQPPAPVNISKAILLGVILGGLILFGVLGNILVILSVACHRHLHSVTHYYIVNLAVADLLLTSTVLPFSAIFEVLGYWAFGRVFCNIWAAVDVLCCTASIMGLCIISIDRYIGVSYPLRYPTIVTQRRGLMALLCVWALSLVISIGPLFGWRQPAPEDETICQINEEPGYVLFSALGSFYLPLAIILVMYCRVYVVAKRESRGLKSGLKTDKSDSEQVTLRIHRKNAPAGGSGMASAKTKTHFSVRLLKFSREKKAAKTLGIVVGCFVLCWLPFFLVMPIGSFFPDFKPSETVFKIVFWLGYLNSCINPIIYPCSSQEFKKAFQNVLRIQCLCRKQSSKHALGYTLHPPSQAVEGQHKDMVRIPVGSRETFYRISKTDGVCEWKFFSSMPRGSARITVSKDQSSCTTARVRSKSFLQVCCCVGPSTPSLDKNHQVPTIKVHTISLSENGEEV

[5] = biological target: T1, Mu-type opioid receptor; test: biochemical
Description: Displacement of [3H]-DAMGO from human MOR expressed in CHOK1 cell membranes incubated for 60 mins by liquid scintillation counting method

[6] = biological target: Voltage-gated inwardly rectifying potassium channel KCNH2 (Homo sapiens, UniProt Q12809)
Sequence of Voltage-gated inwardly rectifying potassium channel KCNH2 (Q12809 whole entry): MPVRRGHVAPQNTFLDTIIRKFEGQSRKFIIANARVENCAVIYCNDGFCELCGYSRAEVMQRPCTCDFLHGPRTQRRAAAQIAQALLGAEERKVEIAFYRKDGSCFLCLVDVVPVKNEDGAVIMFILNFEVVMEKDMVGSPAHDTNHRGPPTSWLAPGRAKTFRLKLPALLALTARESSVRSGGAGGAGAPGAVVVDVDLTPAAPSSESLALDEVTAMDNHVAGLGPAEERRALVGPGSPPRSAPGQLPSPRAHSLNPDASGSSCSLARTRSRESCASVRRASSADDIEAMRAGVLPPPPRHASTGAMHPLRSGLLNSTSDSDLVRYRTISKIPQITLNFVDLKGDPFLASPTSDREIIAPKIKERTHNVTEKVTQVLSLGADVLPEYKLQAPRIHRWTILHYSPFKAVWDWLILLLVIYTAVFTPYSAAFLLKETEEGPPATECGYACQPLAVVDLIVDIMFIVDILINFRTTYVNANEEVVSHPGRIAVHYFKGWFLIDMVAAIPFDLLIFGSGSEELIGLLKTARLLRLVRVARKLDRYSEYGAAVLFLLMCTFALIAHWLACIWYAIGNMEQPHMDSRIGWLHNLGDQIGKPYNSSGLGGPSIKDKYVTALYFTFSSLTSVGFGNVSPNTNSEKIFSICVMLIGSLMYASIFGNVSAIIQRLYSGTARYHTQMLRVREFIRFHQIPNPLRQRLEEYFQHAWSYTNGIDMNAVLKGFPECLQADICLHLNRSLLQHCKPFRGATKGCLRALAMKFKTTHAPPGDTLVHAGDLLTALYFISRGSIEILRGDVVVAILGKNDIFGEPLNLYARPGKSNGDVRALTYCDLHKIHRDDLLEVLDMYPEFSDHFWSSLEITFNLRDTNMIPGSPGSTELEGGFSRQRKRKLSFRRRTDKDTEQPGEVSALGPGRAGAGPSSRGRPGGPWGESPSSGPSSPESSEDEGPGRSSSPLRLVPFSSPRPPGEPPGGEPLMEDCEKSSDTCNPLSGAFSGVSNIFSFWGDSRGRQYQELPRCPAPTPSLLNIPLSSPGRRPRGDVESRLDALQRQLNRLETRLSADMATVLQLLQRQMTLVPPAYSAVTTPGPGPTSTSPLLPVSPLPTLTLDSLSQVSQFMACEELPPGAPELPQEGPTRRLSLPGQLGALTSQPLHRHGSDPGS
Description: Inhibition of human ERG expressed in CHOK1 cells assessed as reduction in channel current at -80 mV holding potential by whole cell patch clamp assay

[7] = biological target: T1, Mu-type opioid receptor; test: Agonist activity at human MOR expressed in CHOK1 cells assessed as […] of cAMP accumulation at 1 uM incubated for 45 mins by HTRF assay; assay type: functional, cell-based
[8] = biological target: T1, Mu-type opioid receptor; test: Displacement of [3H]-DAMGO from human MOR expressed in CHOK1 cell membranes at 1 uM incubated for 60 mins by liquid scintillation counting method

Sequence of Sigma non-opioid intracellular receptor 1 (Q99720 whole entry): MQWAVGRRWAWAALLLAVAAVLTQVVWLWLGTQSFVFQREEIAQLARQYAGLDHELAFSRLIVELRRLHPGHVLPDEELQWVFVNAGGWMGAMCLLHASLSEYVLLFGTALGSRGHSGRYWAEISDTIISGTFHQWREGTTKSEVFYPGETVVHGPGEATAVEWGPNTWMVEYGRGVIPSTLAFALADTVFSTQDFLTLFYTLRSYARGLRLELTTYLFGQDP

inhibition [8] [%]	SMILES	Ki [1] [µM]	EC50 [2] [µM]	Emax [3] [%]	inhibition [4] [%]	Ki [5] [µM]	IC50 [6] [µM]	Activity [7] [%]
	CC1OC2(CCN(CCc3ccccc3)CC2)CN(c2ccccc2)C1=O (racemic)	0.006						
	CC1OC2(CCN(CCc3ccccc3)CC2)CN(c2cccnc2)C1=O (stereo not given)	0.068	0.627	54	69	0.304		
	CC1OC2(CCN(CCc3ccccn3)CC2)CN(c2ccccc2)C1=O (stereo not given)	0.053	0.229	85	49	0.09	2	
	CC1OC2(CCN(CCc3ccccc3)CC2)CN(c2ncccc2C(F)(F)F)C1=O (stereo not given)	0.054	0.343	100	60	0.262	8.2	
< 50	O=C1COC2(CCN(CCc3ccccc3)C2)CN1c1ccccc1 (stereo not given)	0.053	> 1			> 1		< 50
	CN(C)C(=O)CC1OC2(CCN(CCc3ccccc3)CC2)CN(c2ccccc2)C1=O (stereo not given)	0.275	> 1			0.636		< 50
	CC1OC2(CCN(CCc3ccccc3)CC2)CN(c2ccc(O)cc2)C1=O (stereo not given)	0.122	> 1		68	0.606		< 50
	CC(=O)Nc1ccccc1CCN1CCC2(CC1)CN(c1ccccc1)C(=O)C(C)O2 (stereo not given)	0.656	0.342	95	68	0.19		
	CC1OC2(CCN(CCc3ccccc3)CC2)CN(c2ccccc2O)C1=O (stereo not given)	0.051	> 1		66	0.535		< 50
	COCC1OC2(CCN(CCc3ccccc3)CC2)CN(c2ccccc2)C1=O (stereo not given)	0.032	0.032	90	63	0.013	1.9	
	CC1OC2(CCN(CCc3cccnc3)CC2)CN(c2ccccc2)C1=O (stereo not given)	0.091	0.853	85	67	0.117		
	C[C@H]1OC2(CCN(CCc3ccccc3F)CC2)CN(c2cnccc2C(F)(F)F)C1=O	0.061	0.026	100	54	0.011	6.3	
	COc1cccc(N2CC3(CCN(CCc4ccccc4)CC3)OC(C)C2=O)c1 (stereo not given)	0.015	0.304	88	82	0.126	1	
	CC1OC2(CCN(CCc3cccc(C#N)c3)CC2)CN(c2ccccc2)C1=O (stereo not given)	0.028	0.061	88	80	0.049	0.6	
	CC1OC2(CCN(CCc3ccccc3)CC2)CN(c2cccc(O)c2)C1=O (stereo not given)	0.055	> 1		67	0.727		< 50
	O=C1N(c2ccccc2)CC2(CCN(CCc3ccccc3)CC2)OC12CC2	0.009	0.011	93	87	0.015	1.2	
	CC1OC2(CCN(CCc3ccccc3)CC2)CN(c2ccccn2)C1=O (stereo not given)	0.013	1.99	50	63	0.93		
	COc1ccccc1N1CC2(CCN(CCc3ccccc3)CC2)OC(C)C1=O (stereo not given)	0.038	0.144	81	78	0.057		
	CC(C)C1OC2(CCN(CCc3ccccc3)CC2)CN(c2ccccc2)C1=O (stereo not given)	0.01	0.0002	96	65	0.001	1.2	
	C[C@H]1OC2(CCN(CCc3ccccc3F)CC2)CN(c2ncccc2C(F)(F)F)C1=O	0.103	0.065	98	50	0.034	6.6	
	COC(=O)CC1OC2(CCN(CCc3ccccc3)CC2)CN(c2ccccc2)C1=O (stereo not given)	0.054	0.181	85	72	0.092	0.2	
	CC1(C)OC2(CCN(CCc3ccccc3)CC2)CN(c2ccccc2)C1=O	0.013	0.004	98	92	0.003	0.1	

inhibition [8] [%]	SMILES	Ki [1] [µM]	EC50 [2] [µM]	Emax [3] [%]	inhibition [4] [%]	Ki [5] [µM]	IC50 [6] [µM]	Activity [7] [%]
	CC1OC2(CCN(CCc3ccncc3)CC2)CN(c2ccccc2)C1=O (stereo not given)	0.112	1.42	81	30	0.516		
	CC1OC2(CCN(CCc3cccc(F)c3)CC2)CN(c2ccccc2)C1=O (stereo not given)	0.008	0.013	94	74	0.01	0.6	
	O=C1OC2(CCN(CCc3ccccc3)CC2)CN1c1ccccc1	0.055	> 1			0.401		< 50
	CC1OC2(CCN(CCc3ccccc3)CC2)CN(c2ncccc2F)C1=O (stereo not given)	0.039	0.199	90	77	0.093	1.2	
	CC1OC2(CCN(CCc3ccccc3F)CC2)CN(c2ccccc2)C1=O (stereo not given)			95	81			
	O=C1COC2(CCN(Cc3ccccc3)CC2)CN1c1ccccc1	0.026	3.04	74		0.534		
	CC1OC2(CCN(CCc3ccccc3)CC2)CN(c2cccc(C(F)(F)F)n2)C1=O (stereo not given)	0.008	0.219	91	95	0.09		
	CC1OC2(CCN(CCc3ccccc3)CC2)CN(c2cncc(C(F)(F)F)c2)C1=O (stereo not given)	0.014	0.721	92	87	0.261	0.5	
	CC1OC2(CCN(CCc3ccccc3)CC2)CN(c2cccnc2C(F)(F)F)C1=O (stereo not given)	0.048	0.186	87	55	0.123	3.8	
	CC1OC2(CCN(CCc3ccccc3)CC2)CN(c2ccccc2F)C1=O (stereo not given)	0.011	0.004	94	68	0.008	1.2	
	CC1OC2(CCN(CCc3ccccn3)CC2)CN(c2cnccc2C(F)(F)F)C1=O (stereo not given)	0.622	0.767	93	47	0.127		
	CC1OC2(CCN(CCc3ccccc3)CC2)CN(c2ccccc2Cl)C1=O (stereo not given)	0.008	0.001	96	75	0.003	1	
	CCC1OC2(CCN(CCc3ccccc3)CC2)CN(c2ccccc2)C1=O (stereo not given)	0.006	0.001	99	75	0.003	0.4	
	CC1OC2(CCN(CCc3ccccc3)CC2)CN(c2cncc(F)c2)C1=O (stereo not given)	0.003	0.23	87	85	0.204	1.1	
	CC1OC2(CCN(CCc3ccccc3)CC2)CN(c2cnccc2C(F)(F)F)C1=O (stereo not given)	0.063	0.025	96	58	0.028	3.3	
	O=C1C(COCc2ccccc2)OC2(CCN(CCc3ccccc3)CC2)CN1c1ccccc1 (stereo not given)	0.04	0.107	96	94	0.04	0.1	
	O=C1C(CO)OC2(CCN(CCc3ccccc3)CC2)CN1c1ccccc1 (stereo not given)	0.209	0.125	88	55	0.046	1.1	
	C[C@@H]1OC2(CCN(CCc3ccccc3)CC2)CN(c2ccccc2)C1=O	0.014		83	68			
	CC1OC2(CCN(CCc3ccccc3)CC2)CN(c2cnccn2)C1=O (stereo not given)	0.013	0.527	55	64	0.304	0.1	
	CC1OC2(CCN(CCc3ccc(F)cc3)CC2)CN(c2ccccc2)C1=O (stereo not given)	0.011	0.025	95	80	0.019	0.1	
	C[C@H]1OC2(CCN(CCc3ccccc3)CC2)CN(c2ccccc2)C1=O	0.021		95	75			
